What was measured:
Experiment in all cases: Enzyme Inhibition Assay
Prothrombin = Prothrombin (Homo sapiens, UniProt P00734)
Coagulation factor X = Coagulation factor X (Homo sapiens, UniProt P00742)
Coagulation factor XI = Coagulation factor XI (Homo sapiens, UniProt P03951); conditions: pH 7.4; 30 °C
Chain of Coagulation factor XI (P03951 19-387 limits assumed): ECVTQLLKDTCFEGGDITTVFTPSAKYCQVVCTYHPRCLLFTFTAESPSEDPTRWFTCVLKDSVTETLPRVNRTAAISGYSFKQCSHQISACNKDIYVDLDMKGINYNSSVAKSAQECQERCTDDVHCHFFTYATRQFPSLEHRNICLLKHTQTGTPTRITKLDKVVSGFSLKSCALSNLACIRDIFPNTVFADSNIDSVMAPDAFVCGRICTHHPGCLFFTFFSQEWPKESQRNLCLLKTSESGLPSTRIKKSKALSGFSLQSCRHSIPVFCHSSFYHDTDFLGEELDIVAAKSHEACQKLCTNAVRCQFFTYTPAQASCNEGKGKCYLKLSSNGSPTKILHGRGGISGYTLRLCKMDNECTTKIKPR
Chain of Coagulation factor XI (P03951 388-625 limits assumed): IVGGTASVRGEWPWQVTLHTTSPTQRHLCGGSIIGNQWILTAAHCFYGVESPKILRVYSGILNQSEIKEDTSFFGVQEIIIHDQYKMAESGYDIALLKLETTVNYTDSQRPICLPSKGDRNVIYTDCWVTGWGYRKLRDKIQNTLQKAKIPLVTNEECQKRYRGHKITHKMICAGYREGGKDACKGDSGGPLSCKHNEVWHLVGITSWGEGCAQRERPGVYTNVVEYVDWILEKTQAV

Chain of Coagulation factor X (P00742 41-179 limits assumed): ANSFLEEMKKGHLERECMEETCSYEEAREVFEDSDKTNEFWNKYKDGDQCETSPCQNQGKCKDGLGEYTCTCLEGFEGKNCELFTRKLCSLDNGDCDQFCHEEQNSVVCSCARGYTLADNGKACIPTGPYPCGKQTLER
Chain of Coagulation factor X (P00742 235-488 limits assumed): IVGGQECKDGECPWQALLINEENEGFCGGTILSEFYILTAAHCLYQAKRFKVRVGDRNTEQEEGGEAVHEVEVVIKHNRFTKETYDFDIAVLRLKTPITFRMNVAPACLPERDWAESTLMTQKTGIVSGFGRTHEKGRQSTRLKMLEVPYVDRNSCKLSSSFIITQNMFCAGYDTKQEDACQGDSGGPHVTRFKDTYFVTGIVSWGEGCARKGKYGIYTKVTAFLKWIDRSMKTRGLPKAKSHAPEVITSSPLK

SMILES | IC50 (Prothrombin) | IC50 (Coagulation factor X) | IC50 (Coagulation factor XI)
CC(C)[C@H](NC(=O)[C@H](Cc1ccccc1)NC(=O)Nc1ccccc1)C(=O)N[C@@H](CCCN=C(N)N)C(=O)c1nccs1 [(2S)-N-[(2S)-5-carbamimidamido-1-oxo-1-(1,3-thiazol-2-yl)pentan-2-yl]-3-methyl-2-[(2S)-3-phenyl-2-[(phenylcarbamoyl)amino]propanamido]butanamide] | 935 nM | > 20000 nM | 1920 nM
CC(C)[C@H](NC(=O)[C@H](Cc1ccccc1)NC(=O)NCc1ccc(Cl)c(Cl)c1)C(=O)N[C@@H](CCCN=C(N)N)C(=O)c1nccs1 [(2S)-N-[(2S)-5-carbamimidamido-1-oxo-1-(1,3-thiazol-2-yl)pentan-2-yl]-2-[(2S)-2-({[(3,4-dichlorophenyl)methyl]carbamoyl}amino)-3-phenylpropanamido]-3-methylbutanamide] | 6700 nM | 14200 nM | 93 nM
CC(C)[C@H](NC(=O)[C@H](Cc1ccccc1)NC(=O)c1ccco1)C(=O)N[C@@H](CCCN=C(N)N)C(=O)c1nccs1 [(2S)-N-[(2S)-5-carbamimidamido-1-oxo-1-(1,3-thiazol-2-yl)pentan-2-yl]-2-[(2S)-2-(furan-2-ylformamido)-3-phenylpropanamido]-3-methylbutanamide] | – | – | 2200 nM
CC(C)[C@H](NC(=O)[C@H](Cc1ccccc1)NS(=O)(=O)c1ccc(Cl)c(Cl)c1)C(=O)N[C@@H](CCCN=C(N)N)C(=O)c1nccs1 [(2S)-N-[(2S)-5-carbamimidamido-1-oxo-1-(1,3-thiazol-2-yl)pentan-2-yl]-2-[(2S)-2-[(3,4-dichlorobenzene)sulfonamido]-3-phenylpropanamido]-3-methylbutanamide] | – | – | 2300 nM
CC(C)[C@H](NC(=O)[C@H](Cc1ccccc1)NC(=O)Cc1cccs1)C(=O)N[C@@H](CCCN=C(N)N)C(=O)c1nccs1 [(2S)-N-[(2S)-5-carbamimidamido-1-oxo-1-(1,3-thiazol-2-yl)pentan-2-yl]-3-methyl-2-[(2S)-3-phenyl-2-[1-(thiophen-2-yl)acetamido]propanamido]butanamide] | – | – | 2600 nM

Further compounds by falling IC50 (Coagulation factor XI), results first:

IC50 (Prothrombin) | IC50 (Coagulation factor X) | IC50 (Coagulation factor XI) | SMILES
2100 nM | 15400 nM | 403 nM | CCOC(=O)C(CC(C)C)NC(=O)N[C@@H](Cc1ccccc1)C(=O)N[C@H](C(=O)N[C@@H](CCCN=C(N)N)C(=O)c1nccs1)C(C)C (stereo partly drawn) [ethyl 2-({[(1S)-1-{[(1S)-1-{[(2S)-5-carbamimidamido-1-oxo-1-(1,3-thiazol-2-yl)pentan-2-yl]carbamoyl}-2-methylpropyl]carbamoyl}-2-phenylethyl]carbamoyl}amino)-4-methylpentanoate]
2100 nM | 14300 nM | 258 nM | CCOC(=O)C(Cc1ccccc1)NC(=O)N[C@@H](Cc1ccccc1)C(=O)N[C@H](C(=O)N[C@@H](CCCN=C(N)N)C(=O)c1nccs1)C(C)C (stereo partly drawn) [ethyl 2-({[(1S)-1-{[(1S)-1-{[(2S)-5-carbamimidamido-1-oxo-1-(1,3-thiazol-2-yl)pentan-2-yl]carbamoyl}-2-methylpropyl]carbamoyl}-2-phenylethyl]carbamoyl}amino)-3-phenylpropanoate]
4300 nM | – | 160 nM | CC(C)[C@H](NC(=O)[C@H](Cc1ccccc1)NC(=O)NCc1ccc(F)cc1)C(=O)N[C@@H](CCCN=C(N)N)C(=O)c1nccs1 [(2S)-N-[(2S)-5-carbamimidamido-1-oxo-1-(1,3-thiazol-2-yl)pentan-2-yl]-2-[(2S)-2-({[(4-fluorophenyl)methyl]carbamoyl}amino)-3-phenylpropanamido]-3-methylbutanamide]
